The values that follow come from US12172995B2, “Substituted indole and indazole compounds” (BRISTOL-MYERS SQUIBB COMPANY, priority 2018, dated 2024).

Molecules are shown by their SMILES.

Common to all, as to assay type: cell-based
One assay addresses T1, human TLR8 (Homo sapiens, UniProt Q9NR97).
T1 construct: host or cells: HEK-Blue cells
T1 sequence (Q9NR97 27-1041): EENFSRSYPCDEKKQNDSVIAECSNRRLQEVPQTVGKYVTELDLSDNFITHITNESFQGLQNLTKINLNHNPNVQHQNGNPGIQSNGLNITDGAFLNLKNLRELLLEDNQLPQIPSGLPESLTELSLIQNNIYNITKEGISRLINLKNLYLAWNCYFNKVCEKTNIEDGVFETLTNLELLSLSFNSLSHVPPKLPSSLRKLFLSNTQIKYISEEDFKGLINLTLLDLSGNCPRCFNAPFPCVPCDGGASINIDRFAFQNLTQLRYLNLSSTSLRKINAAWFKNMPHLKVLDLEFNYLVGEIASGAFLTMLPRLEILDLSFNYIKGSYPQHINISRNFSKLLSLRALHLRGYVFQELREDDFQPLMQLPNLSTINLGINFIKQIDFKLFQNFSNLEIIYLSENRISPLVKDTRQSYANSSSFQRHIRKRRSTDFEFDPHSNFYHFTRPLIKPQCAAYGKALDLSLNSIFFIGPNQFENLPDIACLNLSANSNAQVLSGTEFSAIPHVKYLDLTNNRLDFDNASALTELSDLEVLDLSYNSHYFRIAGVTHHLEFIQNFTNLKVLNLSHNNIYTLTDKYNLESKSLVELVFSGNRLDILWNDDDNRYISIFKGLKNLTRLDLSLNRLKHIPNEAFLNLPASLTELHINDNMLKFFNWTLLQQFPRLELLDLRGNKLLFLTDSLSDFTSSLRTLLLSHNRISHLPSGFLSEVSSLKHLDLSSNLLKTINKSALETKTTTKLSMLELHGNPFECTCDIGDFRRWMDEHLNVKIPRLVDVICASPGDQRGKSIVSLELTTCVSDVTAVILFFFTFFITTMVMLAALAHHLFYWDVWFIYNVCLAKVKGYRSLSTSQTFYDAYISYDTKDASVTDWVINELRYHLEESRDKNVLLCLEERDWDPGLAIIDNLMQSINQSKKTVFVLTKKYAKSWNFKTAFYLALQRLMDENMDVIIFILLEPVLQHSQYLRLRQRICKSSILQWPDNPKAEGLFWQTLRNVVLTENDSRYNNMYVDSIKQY
As to the kind of experiment: TLR8 inhibition reporter assay (HEK-Blue SEAP). The note with it: HEK-Blue cells overexpressing human TLR8, stimulated with R848 15.9 μM, 22 hour incubation. The procedure, abridged: (§1)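 Cells are seeded, given test compound across 0.05 nM to 50 μM, and after 30 min at room temperature stimulated with the receptor's agonist (gardiquimod 7.5 μM, R848 15.9 μM or ODN2006 5 nM for TLR7, 8, 9). SEAP is measured after 22 h at 37 °C.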
For orientation: A reporter such as luciferase makes a cellular process visible.

The next assay deals with T2, human TLR9 (Homo sapiens, UniProt Q9NR96).
T2 construct: host or cells: HEK-Blue cells
T2 sequence (Q9NR96 26-1032): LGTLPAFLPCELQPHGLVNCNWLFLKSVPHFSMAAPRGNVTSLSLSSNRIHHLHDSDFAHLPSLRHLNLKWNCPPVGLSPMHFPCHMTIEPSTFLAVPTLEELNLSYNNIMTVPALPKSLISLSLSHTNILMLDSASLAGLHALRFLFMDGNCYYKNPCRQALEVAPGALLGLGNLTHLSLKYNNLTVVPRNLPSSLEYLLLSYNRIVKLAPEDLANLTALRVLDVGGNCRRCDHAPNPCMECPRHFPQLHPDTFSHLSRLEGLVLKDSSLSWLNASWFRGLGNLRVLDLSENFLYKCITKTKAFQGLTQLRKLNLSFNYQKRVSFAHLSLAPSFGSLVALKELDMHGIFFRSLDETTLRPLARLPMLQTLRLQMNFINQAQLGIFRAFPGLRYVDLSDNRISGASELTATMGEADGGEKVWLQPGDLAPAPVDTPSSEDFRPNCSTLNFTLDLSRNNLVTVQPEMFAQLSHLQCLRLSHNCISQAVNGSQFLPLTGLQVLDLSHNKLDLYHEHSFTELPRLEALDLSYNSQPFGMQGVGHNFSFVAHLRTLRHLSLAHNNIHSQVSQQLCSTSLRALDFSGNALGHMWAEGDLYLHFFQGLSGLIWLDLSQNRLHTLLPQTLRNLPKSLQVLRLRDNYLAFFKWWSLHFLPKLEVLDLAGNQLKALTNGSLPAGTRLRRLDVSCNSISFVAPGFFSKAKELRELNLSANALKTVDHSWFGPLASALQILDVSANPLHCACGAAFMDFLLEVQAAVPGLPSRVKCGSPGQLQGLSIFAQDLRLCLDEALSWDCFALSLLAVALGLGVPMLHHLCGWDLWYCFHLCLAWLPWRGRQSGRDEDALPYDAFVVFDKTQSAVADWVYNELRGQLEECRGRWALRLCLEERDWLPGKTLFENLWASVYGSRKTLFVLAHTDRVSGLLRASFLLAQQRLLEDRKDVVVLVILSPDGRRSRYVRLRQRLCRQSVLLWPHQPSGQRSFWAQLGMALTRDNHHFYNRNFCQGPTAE
The assay can be described thus: TLR9 inhibition reporter assay (HEK-Blue SEAP). The note with it: HEK-Blue cells overexpressing human TLR9, stimulated with ODN2006 5 nM, 22 hour incubation. The procedure, abridged: as §1

The next assay deals with T3, human TLR7 (Homo sapiens, UniProt Q9NYK1).
T3 construct: host or cells: HEK-Blue cells
T3 sequence (Q9NYK1 27-1049): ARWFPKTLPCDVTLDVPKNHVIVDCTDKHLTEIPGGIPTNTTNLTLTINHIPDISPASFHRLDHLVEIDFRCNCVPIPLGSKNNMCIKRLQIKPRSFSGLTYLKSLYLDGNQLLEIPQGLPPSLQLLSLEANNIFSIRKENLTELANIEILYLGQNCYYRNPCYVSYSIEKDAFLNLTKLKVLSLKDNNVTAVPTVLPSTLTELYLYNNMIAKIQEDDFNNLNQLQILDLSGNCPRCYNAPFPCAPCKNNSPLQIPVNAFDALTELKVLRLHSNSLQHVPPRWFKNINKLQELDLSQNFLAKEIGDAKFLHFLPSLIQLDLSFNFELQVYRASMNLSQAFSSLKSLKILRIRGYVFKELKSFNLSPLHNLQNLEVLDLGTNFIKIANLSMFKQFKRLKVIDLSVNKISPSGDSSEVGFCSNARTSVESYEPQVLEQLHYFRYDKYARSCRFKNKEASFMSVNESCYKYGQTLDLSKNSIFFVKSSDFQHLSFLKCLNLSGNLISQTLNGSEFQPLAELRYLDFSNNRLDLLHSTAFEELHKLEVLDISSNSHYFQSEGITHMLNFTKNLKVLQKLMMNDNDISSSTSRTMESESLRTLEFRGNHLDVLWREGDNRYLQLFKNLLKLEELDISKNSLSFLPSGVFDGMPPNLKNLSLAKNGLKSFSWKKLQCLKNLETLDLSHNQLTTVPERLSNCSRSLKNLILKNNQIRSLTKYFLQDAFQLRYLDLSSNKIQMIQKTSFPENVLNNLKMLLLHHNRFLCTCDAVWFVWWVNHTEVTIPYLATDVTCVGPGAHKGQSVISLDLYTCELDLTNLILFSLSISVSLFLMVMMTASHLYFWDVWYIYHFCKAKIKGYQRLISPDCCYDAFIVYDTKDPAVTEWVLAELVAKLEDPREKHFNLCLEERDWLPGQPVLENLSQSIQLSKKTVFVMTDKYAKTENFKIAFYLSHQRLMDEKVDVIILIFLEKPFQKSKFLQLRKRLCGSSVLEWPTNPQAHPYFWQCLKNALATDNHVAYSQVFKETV
The assay can be described thus: TLR7 inhibition reporter assay (HEK-Blue SEAP). Particulars: HEK-Blue cells overexpressing human TLR7, stimulated with gardiquimod 7.5 μM, 22 hour incubation. In a few lines:
as §1

With `Cc1cc(-c2cc(C)c3ncnn3c2)cc2[nH]nc(OC3CCC(NC4CC4)CC3)c12` (single isomer, unassigned) [Example 190, N-cyclopropyl-4-((4-methyl-6-(8-methyl-[1,2,4]triazolo[1,5-a]pyridin-6-yl)-1H-indazol-3-yl)oxy)cyclohexan-1-amine], the IC50 – broadly, the concentration that gives 50% inhibition – on human TLR8 stood at 1.9 nM; against human TLR9 it was 4510 nM; on human TLR7, 1.6 nM.
For `CCc1cc2c(OC3CCC(N(C)C)CC3)n[nH]c2cc1-c1cc(C)c2ncnn2c1` (single isomer, unassigned) [Example 191, 4-((5-ethyl-6-(8-methyl-[1,2,4]triazolo[1,5-a]pyridin-6-yl)-1H-indazol-3-yl)oxy)-N,N-dimethylcyclohexan-1-amine], the values for the IC50 at human TLR8, against human TLR9 and at human TLR7 were 0.5 nM, 14600 nM and 2.6 nM, respectively.
As for `CCc1cc2c(OC3CCC(N(C)C)CC3)n[nH]c2cc1-c1cc(C)c2ncnn2c1` (single isomer, unassigned) [Example 192, 4-((5-ethyl-6-(8-methyl-[1,2,4]triazolo[1,5-a]pyridin-6-yl)-1H-indazol-3-yl)oxy)-N,N-dimethylcyclohexan-1-amine], the IC50 is 0.1 nM against human TLR8, 7890 nM against human TLR9 and 0.7 nM on human TLR7.
For `Cc1cc(-c2cc3[nH]nc(C4CCC(N5CCC6(CCOC6)C5)CC4)c3cc2C(C)C)cn2ncnc12` (single isomer, unassigned) [Example 209, 7-(4-(5-isopropyl-6-(8-methyl-[1,2,4]triazolo[1,5-a]pyridin-6-yl)-1H-indazol-3-yl)cyclohexyl)-2-oxa-7-azaspiro[4.4]nonane] the same measures were 0.05 nM, 8000 nM and 0.62 nM.
As to `Cc1cc(-c2cc3[nH]nc(C4CCC(N5CCC6(CCOC6)C5)CC4)c3cc2C(C)C)cn2ncnc12` (single isomer, unassigned) [Example 210, 7-(4-(5-isopropyl-6-(8-methyl-[1,2,4]triazolo[1,5-a]pyridin-6-yl)-1H-indazol-3-yl)cyclohexyl)-2-oxa-7-azaspiro[4.4]nonane], the figures for the IC50 at human TLR8, against human TLR9 and at human TLR7 were 0.37 nM, 5910 nM and 2.1 nM, respectively.
For `Cc1cc(-c2cc3[nH]nc(C4CCC(N5CCC(S(C)(=O)=O)C5)CC4)c3cc2C(C)C)cn2ncnc12` (single isomer, unassigned) [Example 211, 6-(5-isopropyl-3-(4-(3-(methylsulfonyl)pyrrolidin-1-yl)cyclohexyl)-1H-indazol-6-yl)-8-methyl-[1,2,4]triazolo[1,5-a]pyridine], the IC50 against human TLR8 worked out at 0.15 nM; against human TLR9, 32300 nM; on human TLR7, 2.5 nM.
On to `Cc1cc(-c2cc3[nH]nc(C4CCC(N5CCC(S(C)(=O)=O)C5)CC4)c3cc2C(C)C)cn2ncnc12` (single isomer, unassigned) [Example 212, 6-(5-isopropyl-3-(4-(3-(methylsulfonyl)pyrrolidin-1-yl)cyclohexyl)-1H-indazol-6-yl)-8-methyl-[1,2,4]triazolo[1,5-a]pyridine], for which the values for the IC50 against human TLR8, against human TLR9 and at human TLR7 were 0.36 nM, 24100 nM and 8.2 nM, respectively.
For `Cc1cc2c(C3CCNCC3)c[nH]c2cc1-c1cc(C)c2ncnn2c1` [Example 1, 8-methyl-6-(5-methyl-3-(piperidin-4-yl)-1H-indol-6-yl)-[1,2,4]triazolo[1,5-a]pyridine] the same measures were 3.9 nM, 657 nM and 4.1 nM.
For the compound `Cc1cc(-c2cc(C)c3ncnn3c2)cc2[nH]cc(C3CCNCC3)c12` [Example 2, 8-methyl-6-(4-methyl-3-(piperidin-4-yl)-1H-indol-6-yl)-[1,2,4]triazolo[1,5-a]pyridine], the IC50 against human TLR8 came to 19.9 nM; at human TLR9, 1040 nM; against human TLR7, 0.9 nM.
Regarding `Cc1cc(-c2cc(C)c3ncnn3c2)cc2[nH]nc(C3CCCN(C(=O)CN(C)C)C3)c12` (stereo not drawn) [Example 5, 2-(dimethylamino)-1-(3-(4-methyl-6-(8-methyl-[1,2,4]triazolo[1,5-a]pyridin-6-yl)-1H-indazol-3-yl)piperidin-1-yl)ethan-1-one], the half-maximal inhibitory concentration (IC50) against human TLR8 worked out at 13.5 nM; against human TLR9, 1560 nM; at human TLR7, 4.9 nM.
`CCc1cc(-c2cc(C)c3ncnn3c2)cc2[nH]nc(C3CCN(CC(=O)N(C)C)CC3)c12` [Example 8, 2-(4-(4-ethyl-6-(8-methyl-[1,2,4]triazolo[1,5-a]pyridin-6-yl)-1H-indazol-3-yl)piperidin-1-yl)-N,N-dimethylacetamide]: the results for the IC50 against human TLR8, against human TLR9 and on human TLR7 were 4.5 nM, 6070 nM and 4 nM, respectively.
In the case of `CCCN1CCC(c2n[nH]c3cc(-c4cc(C)c5ncnn5c4)c(C(C)C)cc23)CC1` [Example 9, 6-(5-isopropyl-3-(1-propylpiperidin-4-yl)-1H-indazol-6-yl)-8-methyl-[1,2,4]triazolo[1,5-a] pyridine], the IC50 on human TLR8 is 0.1 nM; at human TLR9, 6200 nM; on human TLR7 it was 0.5 nM.
